Laboratory results reported in patent publication US9200046B2, “Reporter system for high throughput screening of compounds and uses thereof” (priority 2011, dated 2015).
Structures can show the parent of a compound that is named as a salt. Where two headings read alike, the source gives them in different places.

Biological target: Nrf2-Keap1 complex (Homo sapiens, UniProt Q14145)
Experiment: cell-based
Assay type: cell-based
Details: for activation at 16 µM / activation at 32 µM: 3 h; for activation at 16 µM: read-out: Activation 100 nL; for activation at 32 µM: read-out: Activation 200 nL
[1] = Table 2, 100 nL compound, screen run at 16 and 32 μM, 3 hr
[2] = Table 2, 200 nL compound, screen run at 16 and 32 μM, 3 hr
[3] = Table 1A, 100 nL compound, screen run at 16 and 32 μM, 3 hr
[4] = Table 1A, 200 nL compound, screen run at 16 and 32 μM, 3 hr

Sequence of Nrf2-Keap1 complex (Q14145 whole entry, one chain of several): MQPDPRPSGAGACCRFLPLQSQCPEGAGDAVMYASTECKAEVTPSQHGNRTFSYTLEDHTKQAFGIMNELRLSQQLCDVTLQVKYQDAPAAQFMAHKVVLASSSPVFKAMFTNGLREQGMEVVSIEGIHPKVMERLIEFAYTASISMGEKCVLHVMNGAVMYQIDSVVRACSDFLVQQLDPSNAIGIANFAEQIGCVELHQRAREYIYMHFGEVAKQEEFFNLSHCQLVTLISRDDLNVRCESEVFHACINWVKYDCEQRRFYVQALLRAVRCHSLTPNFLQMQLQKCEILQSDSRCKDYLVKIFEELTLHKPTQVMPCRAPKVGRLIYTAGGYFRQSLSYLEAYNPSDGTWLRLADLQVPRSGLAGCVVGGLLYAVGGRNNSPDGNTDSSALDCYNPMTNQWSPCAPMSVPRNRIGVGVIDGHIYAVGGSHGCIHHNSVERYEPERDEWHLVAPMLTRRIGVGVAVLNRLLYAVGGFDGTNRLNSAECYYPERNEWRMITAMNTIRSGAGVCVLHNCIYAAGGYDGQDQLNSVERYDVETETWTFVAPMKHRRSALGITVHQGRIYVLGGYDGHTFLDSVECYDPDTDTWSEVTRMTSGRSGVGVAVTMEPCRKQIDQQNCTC

Compound | activation at 16 µM | activation at 32 µM | 100 nL (luminescence) [1] | 200 nL (luminescence) [2] | other results
COc1cc(C)c2c(c1C=O)Oc1c(c(C)c(O)c3c1C(O)OC3=O)OC2=O (stereo not shown) [[…]] | 56% | 65% | 1114 | 1952 | –
CCCCCCCCCCCCCC(=O)O[C@@H]1[C@@H](C)[C@@]2(O)[C@@H](C=C(CO)C[C@]3(O)C(=O)C(C)=C[C@@H]23)[C@@H]2C(C)(C)[C@]12OC(C)=O [PHORBOLMYRISTATEACETATE, reference compound] | 47% | 16% | 776 | 712 | –
CC(=O)OC1CC[C@@]2(C)C(CC[C@H]3[C@@H]4CC=C(C(C)=O)[C@@]4(C)C(=O)C[C@@H]32)C1 (stereo partly shown) [3-ACETOXYPREGN-16-EN-12,20-DIONE] | 214% | 30% | 2236 | 1040 | –
COc1cc2c(c(OC)c1OC)-c1ccc(OC)c(=O)cc1[C@@H](NC(C)=O)CC2 [COLCHICINE, reference compound] | 49% | 24% | – | – | 100 nL (luminescence): 944; 200 nL (luminescence): 840
CC1=C2C(=CO[C@H](C)[C@H]2C)C(O)=C(C(=O)O)C1=O [CITRININ] | 219% | 217% | – | – | –
OC[C@H]1O[C@H]([S-])[C@H](O)[C@@H](O)[C@@H]1O.[Au+] [AUROTHIOGLUCOSE, reference compound] | – | – | 604 | 360 | Activation 100 nL: 27%; Activation 200 nL: 1%
CC1=C(/C=C/C(C)=C/C=C/C(C)=C\C(=O)O)C(C)(C)CCC1 [ISOTRETINON, reference compound] | – | – | 1068 | 1456 | Activation 100 nL: 34%; Activation 200 nL: 86%
COc1ccc2cc1Oc1ccc(cc1)C[C@H]1c3cc(c(OC)cc3CCN1C)Oc1c(OC)c(OC)cc3c1[C@H](C2)N(C)CC3 [TETRANDRINE] | 85% | 18% | – | – | 100 nL (luminescence) [3]: 1660; 200 nL (luminescence) [4]: 596
COc1c(C)c2c(c(O)c1C/C=C(\C)CCC(=O)O)C(=O)OC2 [MYCOPHENOLICACID, reference compound] | 26% | 84% | 904 | 1428 | –
O=CC=Cc1ccc(O)cc1 [p-HYDROXYCINNAMALDEHYDE] | 63% | 122% | 1208 | 3256 | –
COC(=O)Nc1nc2ccc(Sc3ccccc3)cc2[nH]1 [FENBENDAZOLE, reference compound] | 224% | -24% | – | – | 100 nL (luminescence) [3]: 4908; 200 nL (luminescence) [4]: 92
C=C(CC)C(=O)c1ccc(OCC(=O)O)c(Cl)c1Cl [reference compound] | 139% | 156% | 2088 | 3604 | –
COc1ccc2c(c1)OC/C(=C\c1ccc(OC)c(O)c1)C2=O [SAPPANONEADIMETHYLETHER] | 377% | 110% | 6124 | 2008 | –
Cc1c(O)c(O)cc2c1CC=C1[C@@]2(C)CC[C@@]2(C)[C@@H]3C[C@](C)(C(=O)O)CC[C@]3(C)CC[C@]12C [DIHYDROCELASTROL] | 62% | -16% | 1196 | 88 | hit strength in the screen (words): modest hit
CC(C)=CCC1=C(O)C(=O)c2ccccc2C1=O [LAPACHOL] | 47% | 24% | – | – | –
NCCc1cc(O)c(O)cc1O [OXIDOPAMINEHYDROCHLORIDE] | 107% | 124% | 1676 | 2936 | –
O=C(O)c1cc(O)c2c(c1)[C@@H]([C@H]1c3cc(C(=O)O)cc(O)c3C(=O)c3c(O[C@H]4O[C@H](CO)[C@@H](O)[C@H](O)[C@H]4O)cccc31)c1cccc(O[C@H]3O[C@H](CO)[C@@H](O)[C@H](O)[C@H]3O)c1C2=O [SENNOSIDEA, reference compound] | 141% | -24% | – | – | 100 nL (luminescence): 3204; 200 nL (luminescence): 4
O=C(/C=C/c1ccc(O)cc1)c1ccccc1O [2′,4-DIHYDROXYCHALCONE] | 390% | -9% | 3784 | 120 | –
[…](CAPE) | – | – | 2508 | 16 | Activation 100 nL: 245%; Activation 200 nL: −14%
CCCCC(CC)CNC(=N)NC(=N)NCCCCCCNC(=N)NC(=N)NCC(CC)CCCC (stereo not shown) [ALEXIDINEHYDROCHLORIDE] | 101% | -18% | 1900 | 52 | –

Compound | activation at 16 µM | activation at 32 µM | 100 nL (luminescence) [1] | 200 nL (luminescence) [2] | other results
CCC(=O)O[C@H]1[C@H](O[C@@H]2[C@@H](C)[C@H](O[C@H]3C[C@@](C)(OC)[C@@H](O)[C@H](C)O3)[C@@H](C)C(=O)O[C@H](CC)[C@@](C)(O)[C@H](O)[C@@H](C)C(=O)[C@H](C)C[C@@]2(C)O)O[C@H](C)C[C@@H]1N(C)C [ERYTHROMYCINESTOLATE, reference compound] | 31% | 71% | – | – | –
CNC(=O)CSP(=S)(OC)OC [DIMETHOATE] | 59% | 145% | 1148 | 3772 | –
Nc1ncnc2c1ncn2C1O[C@H](COP(=O)(O)O)[C@@H](O)[C@H]1O (stereo partly shown) [ADENOSINEPHOSPHATE, reference compound] | 27% | 14% | – | – | 100 nL (luminescence) [3]: 924; 200 nL (luminescence) [4]: 556
COc1c(O)cc2oc3cc(O)c(CC=C(C)C)c(O)c3c(=O)c2c1CC=C(C)C [alpha-MANGOSTIN] | – | – | – | – | 100 nL (luminescence): 736; 200 nL (luminescence): 16; Activation 100 nL: 28%; Activation 200 nL: −19%
CC(=O)Oc1cc(-c2coc3cc(OC(C)=O)c(OC(C)=O)c(OC(C)=O)c3c2=O)cc(OC(C)=O)c1OC(C)=O [IRIGINOLHEXAACEATATE] | 65% | 58% | 1350 | 1208 | –
COc1cc(O)c(C(=O)/C=C/c2ccc(OC)c(O)c2)c(OC)c1 [2′,3-DIHYDROXY-4,4′,6′-TRIMETHOXYCHALCONE] | 296% | 10% | 5436 | 544 | –
CCCOc1ccc2nc(NC(=O)OC)[nH]c2c1 [OXIBENDAZOLE, reference compound] | 38% | 36% | – | – | 100 nL (luminescence) [3]: 1164; 200 nL (luminescence) [4]: 1064
C[C@]12C=CC(=O)C=C1CC[C@@H]1[C@@H]2[C@@H](O)C[C@@]2(C)[C@H]1CC[C@]2(O)C(=O)CO [PREDNISOLONE, reference compound] | 42% | 53% | – | – | 100 nL (luminescence): 864; 200 nL (luminescence): 1452
CC(=O)OC1CCC23CC1(C)CCC2C(C)(C)CC3OC(C)=O (stereo not shown) [CLOVANEDIOLDIACETATE] | 27% | 40% | 728 | 1356 | –
Cc1cccc2c3c(ccc12)C1=C(C(=O)C3=O)[C@@H](C)CO1 [DIHYDROTANSHINONEI] | 158% | 5% | 2480 | 572 | –
CC(C)c1cc2c(c(O)c1O)[C@@]1(C(=O)O)CCCC(C)(C)[C@@H]1CC2 [CARNOSICACID] | 372% | 182% | 3620 | 4604 | –
CN(C)c1ccc(O)c2c1C[C@H]1C[C@H]3[C@H](N(C)C)C(O)=C(C(N)=O)C(=O)[C@@]3(O)C(O)=C1C2=O [MINOCYCLINEHYDROCHLORIDE, reference compound] | 326% | 169% | – | – | Neh2-luc reporter activation: 200%
COc1ccc(/C=C/C(=O)c2cc(O)ccc2O)cc1 [2′,5′-DIHYDROXY-4-METHOXYCHALCONE] | 322% | 20% | 3188 | 800 | –
COc1ccc(/C=C/C(=O)c2ccc(O)cc2O)cc1 [2′,4′-DIHYDROXY-4-METHOXYCHALCONE] | 246% | 121% | 4576 | 2720 | –
CC(C)CCCC1(C)C=Cc2c(O)c3c(c(CCC(C)C)c2O1)OC12C(CC4CC1C(C)(C)OC2(CCC(C)C(=O)O)C4O)C3=O (stereo not shown) [DECAHYDROGAMBOGICACID] | 54% | 40% | 1184 | 936 | –
CCc1cccc(CC)c1N(COC)C(=O)CCl [ALACHLOR] | 261% | 194% | 3852 | 4892 | –
1(2)alpha-EPDXYDEOXYDIHYDROGEDUNIN | – | – | 752 | 1028 | Activation 100 nL: 29%; Activation 200 nL: 25%
O=C1OCCN1/N=C/c1ccc([N+](=O)[O-])o1 [FURAZOLIDONE, reference compound] | 43% | 45% | – | – | 100 nL (luminescence): 876; 200 nL (luminescence): 1288
Oc1cccc2cccnc12 [8-hydroxyquinoline] | – | – | – | – | Neh2-luc reporter activation: 60%
COC(=O)[C@H](O)[C@H]1C(C)(C)[C@H](OC(C)=O)[C@@H]2CC3=C4CC(=O)O[C@@H](c5ccoc5)[C@]4(C)CC[C@@H]3[C@@]1(C)C2=O [SWIETENOLIDE-3-ACETATE] | – | – | 1430 | 2088 | Activation 100 nL: 70%; Activation 200 nL: 115%
